Laboratory results: ChEMBL document CHEMBL2074465, “Nonsteroidal anti-inflammatory drugs efficiently reduce the transport and cytotoxicity of adefovir mediated by the human renal organic anion transporter 1” (J Pharmacol Exp Ther, 2000)

Target: T1, Solute carrier family 22 member 6 (Homo sapiens, UniProt Q4U2R8)
T1 sequence (Q4U2R8 whole entry): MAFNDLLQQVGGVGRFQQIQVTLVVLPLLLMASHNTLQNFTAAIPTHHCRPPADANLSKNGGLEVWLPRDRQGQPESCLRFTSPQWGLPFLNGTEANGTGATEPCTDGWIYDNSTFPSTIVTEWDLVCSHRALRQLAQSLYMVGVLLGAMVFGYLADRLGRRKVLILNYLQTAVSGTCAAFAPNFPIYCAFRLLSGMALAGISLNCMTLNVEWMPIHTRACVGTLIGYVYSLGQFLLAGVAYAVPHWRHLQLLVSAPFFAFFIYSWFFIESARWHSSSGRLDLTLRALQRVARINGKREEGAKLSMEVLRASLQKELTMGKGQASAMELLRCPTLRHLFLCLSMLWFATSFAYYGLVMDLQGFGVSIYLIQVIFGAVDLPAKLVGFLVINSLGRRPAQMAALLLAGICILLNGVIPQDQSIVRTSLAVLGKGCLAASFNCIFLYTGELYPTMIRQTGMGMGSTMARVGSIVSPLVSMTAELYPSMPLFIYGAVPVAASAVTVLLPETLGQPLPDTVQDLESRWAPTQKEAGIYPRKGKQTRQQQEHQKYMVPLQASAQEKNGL
Experiment: TP_TRANSPORTER: uptake in OAT1-expressing CHO cells
Format: functional, cell-based
Conditions: hamster

SMILES: CC(C(=O)O)c1cccc(C(=O)c2ccccc2)c1 (stereo unspecified) [KETOPROFEN]
- Activity: is not a substrate [-]
